According to patent US20250344693A1, “HERBICIDE SUSPENSION CONCENTRATES AND METHOD FOR THEIR PREPARATION” (NUFARM AUSTRALIA LIMITED, priority 2022, published 2025):

Assay: Hot solution temperature: homogeneous solution of active with excipient or second active
Type: physicochemical
Method: Numerous materials may act to form solutions of agrochemicals at elevated temperature. The solubility of MCPA, 2,4-D) and mecoprop with a range of common excipients was assessed at elevated temperature. To establish the melting behaviour of the individual actives, each active (1.25 g) was weighed into a 40 mL vial and heated gradually using a hotplate and Asynt heating insert until full melted, and the melting range was noted. […] To establish hot solvent behaviour, a range of excipients were weighed into 40 mL vials (0.676 g) with each chosen active (1.25 g). The mixtures were then heated gradually until a fully homogeneous solution was observed and the temperature was noted as described above. Additionally, the potential for agrochemicals to act as solvents for a second agrochemical at elevated temperature was also studied by combining the active ingredients in a ratio of 1.85:1 active:active ‘solvent’ following the same procedure as described above. For example, in a mixture where the first active was MCPA (1.25 g) and the second was mecoprop (0.676 g) both actives were added to a 40 mL vial and heated following the procedure detailed above. Where a homogeneous phase is observed below the measured melting point of the study active ingredient, a hot solution is considered to have been formed and the excipient is deemed to act as a solvent at elevated temperature.
Where the “solvent” is listed as “None”, the temperature stated represents the formation of a homogeneous melt.

SMILES: O=C(O)COc1ccc(Cl)cc1Cl [2,4-D, 2,4-dichlorophenoxyacetic acid]
- Solution temp range (° C.) (2nd active Dichloroprop-P as solvent, ratio 1.85:1): 130-132 °C
- Solution temp range (° C.) (2nd active MCPA as solvent, ratio 1.85:1): 140-142 °C
- Solution temp range (° C.) (2nd active Mecoprop as solvent, ratio 1.85:1 active:active solvent): 130-131 °C
- temperature range where homogeneous solutions formed (° C.) (solvent 1,2-Propanediol): 110-112 °C
- temperature range where homogeneous solutions formed (° C.) (solvent Altox 4894): 121-125 °C
- temperature range where homogeneous solutions formed (° C.) (solvent Altox 4912): 138-140 °C
- temperature range where homogeneous solutions formed (° C.) (solvent Altox 4913): 116-120 °C
- temperature range where homogeneous solutions formed (° C.) (solvent Atlas G5000): 129-131 °C
- temperature range where homogeneous solutions formed (° C.) (solvent Atlox 4915): 134-137 °C
- temperature range where homogeneous solutions formed (° C.) (solvent Atlox 4916): 140-141 °C
- temperature range where homogeneous solutions formed (° C.) (solvent Atplus 245): 123-126 °C
- temperature range where homogeneous solutions formed (° C.) (solvent Atplus PFA): 127-130 °C
- temperature range where homogeneous solutions formed (° C.) (solvent Atplus UEP): 132-135 °C
- temperature range where homogeneous solutions formed (° C.) (solvent Crodamol AB): 136-138 °C
- temperature range where homogeneous solutions formed (° C.) (solvent Crodamol GTCC): 138-140 °C
- temperature range where homogeneous solutions formed (° C.) (solvent Dipropylene glycol dimethyl ether): 114-116 °C
- temperature range where homogeneous solutions formed (° C.) (solvent Genapol X020): 118-121 °C
- temperature range where homogeneous solutions formed (° C.) (solvent Genapol X050): 120-123 °C
- temperature range where homogeneous solutions formed (° C.) (solvent Genapol X060): 118-122 °C
- temperature range where homogeneous solutions formed (° C.) (solvent Genapol X080): 118-121 °C
- temperature range where homogeneous solutions formed (° C.) (solvent Glycerol, 1.25 g active, 0.676 g excipient): 116-118 °C
- temperature range where homogeneous solutions formed (° C.) (solvent Multiwet MO85): 140-143 °C
- temperature range where homogeneous solutions formed (° C.) (solvent PEG 400): 122-123 °C
- temperature range where homogeneous solutions formed (° C.) (solvent PEG 1000): 124-126 °C
- temperature range where homogeneous solutions formed (° C.) (solvent PEG 4000): 134-136 °C
- temperature range where homogeneous solutions formed (° C.) (solvent Pluronic F68): 137-140 °C
- temperature range where homogeneous solutions formed (° C.) (solvent Pluronic F127): 137-140 °C
- temperature range where homogeneous solutions formed (° C.) (solvent Propylene glycol): 110-112 °C
- temperature range where homogeneous solutions formed (° C.) (solvent Synperonic PE/L31): 129-130 °C
- temperature range where homogeneous solutions formed (° C.) (solvent Synperonic PE/L64): 132-135 °C
- temperature range where homogeneous solutions formed (° C.) (solvent Synprolam 35X15): 123-126 °C
- temperature range where homogeneous solutions formed (° C.) (solvent Tween 22): 120-124 °C
- temperature range where homogeneous solutions formed (° C.) (solvent Tween 23): 120-124 °C
- temperature range where homogeneous solutions formed (° C.) (solvent Tween 24): 120-124 °C
